Literature values, collected in article PMC10223992, “In Silico-Motivated Discovery of Novel Potent Glycogen Synthase-3 Inhibitors: 1-(Alkyl/arylamino)-3H-naphtho[1,2,3-de]quinoline-2,7-dione Identified as a Scaffold for Kinase Inhibitor Development” (Pharmaceuticals, 2023).

Tested on: GSK-3β
Parameters: method as in ChEMBL database [53]
Conditions: Table S1, ChEMBL data; ref ChEMBL database [53]; read-out: IC50 (GSK-3β, known actives); cited from earlier work

Q: For `Oc1ccc(Nc2ncnc3[nH]cnc23)cc1CN(CCCl)CCCl` [CHEMBL1630434], which IC50 is on record?
A: 0.0108 µM

Q: With `CCOC(=O)C/N=c1\nc(-c2ccc(OC)cc2)n(-c2ccccc2)s1` [CHEMBL2024372] as the compound, how does the IC50 read?
A: 0.5 µM

Q: For `O=CN1Cc2cccc3c(C4=C(c5cnc6ccccn56)C(=O)NC4=O)cn(c23)CC1N1CCOCC1` (stereo not shown) [CHEMBL4162850], which IC50 is on record?
A: 0.0013 µM

Q: With `N#Cc1ccc2[nH]c(O)c(-c3ccc(CN4CCOCC4)cn3)c2c1` [CHEMBL1969664] as the compound, how does the IC50 read?
A: 0.031 µM

Q: With `C=CCOC(=O)c1cc(-c2ccc(/C=C3/NC(=S)NC3=O)o2)ccc1Cl` [CHEMBL4568120] as the compound, how does the IC50 read?
A: 0.218 µM

Q: Which IC50 does the source give for `COc1cccc(-n2ncc3c(N/N=C/c4ccc(OCCN(C)C)cc4)ncnc32)c1` [CHEMBL303321] here?
A: 0.00631 µM

Q: Which IC50 does the source give for `O=C1Cc2cc(Br)ccc2/C1=c1/[nH]c2ccccc2/c1=C\O` [CHEMBL4077172] here?
A: 0.005 µM

Q: Which IC50 does the source give for `COc1cc(F)cc(F)c1C1CN(c2nc(-c3ccncn3)cc(=O)n2C)CCN1` (stereo not shown) [CHEMBL4071429] here?
A: 0.0017 µM

Q: For `O=C(NCCc1cccnc1Cl)c1ccnc2[nH]c(-c3ccoc3)nc12` [CHEMBL2048673], which IC50 is on record?
A: 0.009 µM

Q: Which IC50 does the source give for `Fc1cnc2[nH]nc(Nc3cc(C(F)(F)F)cc(-c4ccccc4Cl)n3)c2c1` [CHEMBL3661029] here?
A: 0.05 µM

Q: With `O=c1[nH]cnc2[nH]c(-c3ccnc(/C=C/c4ccc(CN5CCOCC5)cc4)c3)cc12` [CHEMBL461139] as the compound, how does the IC50 read?
A: 0.3 µM

Q: With `COc1ccc(-c2cc3c(NC(=O)CC4CCCC4)ncnc3o2)cc1` [CHEMBL182891] as the compound, how does the IC50 read?
A: 0.32 µM

Q: For `COc1ccncc1-c1ccc2[nH]nc(C(=O)NCC3CCN(CCc4ccccc4)CC3)c2c1` [CHEMBL3735603], which IC50 is on record?
A: 0.02 µM

Q: For `COc1ccc(-c2cc(-c3ccc(F)cc3)[nH]c(=O)c2O)cc1` [CHEMBL1630451], which IC50 is on record?
A: 0.325 µM

Q: For `O=C1Nc2ccccc2/C1=C1/Nc2cc(Br)ccc2C1=O` [CHEMBL1830063], which IC50 is on record?
A: 0.004 µM

Q: Which IC50 does the source give for `Nc1c(Br)cc(C(=O)C(Br)Br)cc1Br` [CHEMBL1801628] here?
A: 0.5 µM

Q: Which IC50 does the source give for `Cc1ccc(-n2cc(CSC3=NC(c4ccccc4)CC(=O)N3C)nn2)cc1C` (stereo not shown) [CHEMBL4635819] here?
A: 0.082 µM

Q: With `Cc1[nH]c2ccccc2c1C1=C(NCCc2ccc(F)cc2)C(=O)N(C)C1=O` [CHEMBL1254896] as the compound, how does the IC50 read?
A: 0.053 µM

Q: With `Cc1ccccc1-n1cc(-c2ccccn2)nn1` [CHEMBL1938959] as the compound, how does the IC50 read?
A: 0.49 µM

Q: For `COc1ccc(-c2oc3ncnc(N)c3c2-c2cccnc2)cc1` [CHEMBL361567], which IC50 is on record?
A: 0.08 µM

Q: With `O=C(/C=C/c1cnc2[nH]cc(-c3ccccc3)c2c1)NCCN1CCOCC1` [CHEMBL3891139] as the compound, how does the IC50 read?
A: 0.046 µM

Q: With `COc1cc(C2=C(c3cn(CCN4CCN(C)CC4)c4ccccc34)C(=O)NC2=O)c2occc2c1` [CHEMBL564450] as the compound, how does the IC50 read?
A: 0.00014 µM

Q: Which IC50 does the source give for `OCC/N=c1\nc(-c2ccccc2)n(-c2cccc3ccccc23)s1` [CHEMBL2022413] here?
A: 0.3 µM

Q: With `COc1ccc(-c2ocnc2C(=O)NCc2ccn3ccnc3c2)cc1Cl` [CHEMBL1957231] as the compound, how does the IC50 read?
A: 0.00501 µM

Q: For `COc1ccc2c(c1C(C)N1CCNCC1)O/C(=C\c1n[nH]c3ncccc13)C2=O` (stereo not shown) [CHEMBL3735890], which IC50 is on record?
A: 0.0061 µM

Q: For `C[C@@H]1C[C@H]2CN1CCn1nc3c(cccc3c1O)-c1nc3c(cccc3nc1O)O2` [CHEMBL215803], which IC50 is on record?
A: 0.013 µM

Q: With `COc1ccc(Nc2nnc(-c3ccc(C(F)(F)F)cc3)o2)cc1` [CHEMBL1630483] as the compound, how does the IC50 read?
A: 0.053 µM

Q: Which IC50 does the source give for `CCc1ccc(-n2cc(CSc3nnc(Cn4c(C(F)(F)F)nc5ccccc54)o3)nn2)cc1` [CHEMBL4643895] here?
A: 0.39 µM

Same assay, conditions: read-out: IC50 (GSK-3β, known actives); cited from earlier work

Q: Which IC50 does the source give for `Cc1nn(-c2ccc(Cl)cc2Cl)c2c1c1c(c3cccn32)C(=O)NC1=O` [CHEMBL3110144] here?
A: 0.24 µM

Q: For `CN(C)C[C@@H](OC(=O)N1Cc2c(NC(=O)C(C)(C)C)n[nH]c2C1(C)C)c1ccccc1` [CHEMBL2064628], which IC50 is on record?
A: 0.227 µM
